Laboratory results reported in article PMC9127163, “Lysosomal Targeted Cyclometallic Iridium(Ⅲ) Salicylaldehyde-Coumarin Schiff Base Complexes and Anticancer Application” (Frontiers in Chemistry, 2022).

Assays:
Format in all cases: cell-based, human
A549 cells [1] = assay: MTT cytotoxicity assay, A549 cells; details: 24 h
Source text: (§1) MTT assay was utilized to evaluate the anticancer activity of Ir1-Ir6 toward A549 cells (human non-small cell lung cancer cells, one of the deadliest types of cancer in both developing and developed countries) along with cisplatin (metal anticancer drug widely used in clinic) as a control and compared with the cytotoxicity against noncancerous BEAS-2B cells (epithelial cells isolated from pathological sections of normal bronchial epithelium from non-cancerous individuals). […] Additionally, the substitution sites of coumarin (6- and 7-) have little effect on these complexes, however, the peripheral substituents show a significant effect on the structure−activity. […] In addition, the data is even better than the reported traditional cyclometallic Ir^III complexes (usually depicted as [(ppy)2Ir (L^L)], L^L = N^N, C^N, C^O, O^N, P^P, etc., Supplementary Table S3). […]
(§2) After plating 5000 cells per well in 96-well plates, the cells were preincubated in drug-free media at 310 K for 24 h before adding different concentrations of drugs to be tested. […] Afterwards, 100 μL of DMSO was transferred into each well to dissolve the purple formazan, and results were measured using a microplate reader (DNM-9606, Perlong Medical, Beijing, China) at an absorbance of 570 nm. […]

BEAS-2B cells [2] = assay: MTT cytotoxicity assay, BEAS-2B cells; details: 24 h
Source text: as §1, §2

A549 cells [3] = assay: Mitochondrial membrane potential (JC-1) flow cytometry, A549 cells; details: A549, positive control CCCP (5 μM), 20 min
Source text: Mitochondria, the main intracellular energy source, play an important role in the process of apoptosis. Disruption of mitochondrial membrane potential (MMP) is usually identified as the early signals of cell apoptotic. JC-1, a liphile cationic fluorescent dye, is generally used to detect the change of MMP, and it emits strong red fluorescence in the normal mitochondrial matrix and green fluorescence after depolarization activation in apoptotic cells ([Antonicka et al., 2017]). In this study, flow cytometry was utilized to analyze this change after the treatment of Ir2 at a gradient concentration. […] In addition, intracellular reactive oxygen species (ROS) is mainly produced and stored in mitochondria, and the accumulation of intracellular ROS can lead to apoptosis ([Romero-Canelón et al., 2015]). A549 and BEAS-2B cells were stained with DCFH-DA after incubated with Ir2 (1.0 × IC50 and 2.0 × IC50) for 24 h (Figure 8B). The intracellular ROS levels increased in a dose-dependent manner. […]
(§3) Analysis of the changes of mitochondrial potential in cells after exposure to Ir2 were carried out using the mitochondrial membrane potential assay kit with JC-1 (Beyotime Institute of Biotechnology, Shanghai, China) according to the manufacturer’s instructions. […] The samples were immediately analyzed by a flow cytometer (ACEA NovoCyte, Hangzhou, China). […]

BEAS-2B cells [4] = assay: Mitochondrial membrane potential (JC-1) flow cytometry, BEAS-2B cells; details: positive control CCCP (5 μM), 20 min
Source text: Mitochondria, the main intracellular energy source, play an important role in the process of apoptosis. Disruption of mitochondrial membrane potential (MMP) is usually identified as the early signals of cell apoptotic. JC-1, a liphile cationic fluorescent dye, is generally used to detect the change of MMP, and it emits strong red fluorescence in the normal mitochondrial matrix and green fluorescence after depolarization activation in apoptotic cells ([Antonicka et al., 2017]). In this study, flow cytometry was utilized to analyze this change after the treatment of Ir2 at a gradient concentration. […] In addition, intracellular reactive oxygen species (ROS) is mainly produced and stored in mitochondria, and the accumulation of intracellular ROS can lead to apoptosis ([Romero-Canelón et al., 2015]). A549 and BEAS-2B cells were stained with DCFH-DA after incubated with Ir2 (1.0 × IC50 and 2.0 × IC50) for 24 h (Figure 8B). The intracellular ROS levels increased in a dose-dependent manner.
as §3

Structure (SMILES)	IC50 (A549 cells [1])	IC50 (BEAS-2B cells [2])	Percentage (%) JC-1 Aggregates (A549 cells [3])	Percentage (%) JC-1 Monomers (depolarized cells) (A549 cells [3])	Percentage (%) JC-1 Aggregates (BEAS-2B cells [4])	Percentage (%) JC-1 Monomers (BEAS-2B cells [4])
N.N.[Cl][Pt][Cl] [Cisplatin, reference compound]	21.3 ± 1.7 µM	38.4 ± 2.8 µM	–	–	–	–
N#CC(C#N)=NNc1cccc(Cl)c1 [Positive Control, carbonyl cyanide 3-chlorophenylhydrazone, reference compound]	–	–	22.63±0.55%	77.37±0.55%	11.60±0.51%	88.40±0.33%
